Like-named read-outs stand apart in the source and are kept apart here.
Legend:
SARS‐CoV‐2 M^pro = SARS‐CoV‐2 M^pro (Severe acute respiratory syndrome coronavirus 2, UniProt P0DTD1); assay: SARS‐CoV‐2 main protease enzymatic assay (FRET inhibitor screening kit); type: biochemical; conditions: for inhibition at 5 µM: read-out: Inhibitionrate at @5μM
SARS‐CoV‐2 = assay: microbe, parasite or virus in culture; type: cell-based
[1] = test system: SARS‐CoV‐2 (hCoV‐19/Korea/KCDC06/2020, wild type); assay: microbe, parasite or virus in culture; type: cell-based
in vitro [2] = conditions: African green monkey
in vitro [3] = conditions: human
[4] = Severe acute respiratory syndrome coronavirus 2, Vero cells, with CP‐100356, read-out: EC50 ± SD, Vero cells, with P‐gp inhibitor
[5] = Severe acute respiratory syndrome coronavirus 2, Vero cells, without CP‐100356, read-out: EC50 ± SD, Vero cells, without P‐gp inhibitor
[6] = Severe acute respiratory syndrome coronavirus 2, Calu-3, Calu‐3 cells, with CP‐100356, read-out: EC50 ± SD, Calu‐3 cells, with P‐gp inhibitor
[7] = Severe acute respiratory syndrome coronavirus 2, Calu-3, Calu‐3 cells, without CP‐100356, read-out: EC50 ± SD, Calu‐3 cells, without P‐gp inhibitor
[8] = Calu‐3 cells, without CP‐100356, read-out: EC50 ± SD, Calu‐3 cells, without P‐gp inhibitor
[9] = Severe acute respiratory syndrome coronavirus 2, Calu-3, Calu‐3 cells, racemate, enantiomers and […] measured in the same system, read-out: EC50, anti‐SARS‐CoV‐2 activity in Calu‐3 cells (Figure 3B)

Structure (SMILES) | inhibition of M^pro enzymatic activity, first round of screening (SARS‐CoV‐2 M^pro) [%] | inhibition at 5 µM (SARS‐CoV‐2 M^pro) [%] | EC50 (SARS‐CoV‐2; [4]) [nM] | EC50 (SARS‐CoV‐2; [5]) [nM] | EC50 [1, 6] [nM] | EC50 [1, 7] [nM] | CC50 at 2 day (in vitro [2]) [nM] | IC50 (SARS‐CoV‐2 M^pro) [nM] | CC50 at 2 day (in vitro [3]; CC50, Calu‐3 cells, MTT assay) [nM] | also measured
O=C(c1cccnc1)N1CCN(C(c2cccc(F)c2)c2cn(CCc3ccsc3)nn2)CC1 (stereo not shown) [Compound C4N17] | 86 | 72.3 | 2460 ± 314 | 2740 ± 110 | 880 ± 109 | 1850 ± 139 | > 100000 | – | – | IC50 (SARS‐CoV‐2 M^pro; purified compounds, FRET assay): 1870 ± 13 nM; CC50 at 2 day (in vitro [3]): > 100000 nM
O=C(c1cccnc1)N1CCN(C(c2cccc(F)c2)c2cn(CCN3C(=O)c4ccccc4C3=O)nn2)CC1 (stereo not shown) [Compound C4N21] | 82 | 80.2 | > 10000 | > 69800 | 4020 ± 566 | 74400 ± 36300 | 69800 ± 1050 | – | – | IC50 (SARS‐CoV‐2 M^pro; purified compounds, FRET assay): 1300 ± 17 nM; CC50 at 2 day (in vitro [3]): > 100000 nM
Cc1cncc(C(=O)N2C[C@H]3CC[C@@H](C2)N3C(c2cccc(F)c2)c2cn(Cc3cccc([N+](=O)[O-])c3)nn2)c1 (stereo partly shown) [Compound C5N5] | 93 | 79.2 | 1850 ± 526 | 1790 ± 21 | 2560 ± 86 | 2860 ± 395 | > 100000 | 1230 ± 1 | > 100000 | –
Cc1cncc(C(=O)N2C[C@H]3CC[C@@H](C2)N3C(c2cccc(F)c2)c2cn(Cc3ccc([N+](=O)[O-])cc3)nn2)c1 (stereo partly shown) [Compound C5N6] | 88 | 68.8 | 1740 ± 238 | 1830 ± 30 | 1050 ± 14 | < 1000 | > 100000 | 2500 ± 13 | > 100000 | EC50 [1, 8]: 767 ± 156 nM
Cc1cncc(C(=O)N2C[C@H]3CC[C@@H](C2)N3C(c2cccc(F)c2)c2cn(CCc3ccccc3)nn2)c1 (stereo partly shown) [Compound C5N16] | 99 | 93 | 1890 ± 524 | 2000 ± 21 | 80 ± 2 | – | > 100000 | 283 ± 18 | > 100000 | –
Cc1cncc(C(=O)N2C[C@H]3CC[C@@H](C2)N3[C@@H](c2cccc(F)c2)c2cn(CCc3ccsc3)nn2)c1 [Compound C5N17A] | – | 53.2 | – | – | – | – | – | 3180 | – | EC50 [1, 9]: 5950 nM; CC50 at 2 day (in vitro [3]; CC50, column 9, after the Calu-3 EC50 columns): > 100000 nM
Cc1cncc(C(=O)N2C[C@H]3CC[C@@H](C2)N3C(c2cccc(F)c2)c2cn(CCc3ccsc3)nn2)c1 (stereo partly shown) [Compound C5N17] | 101 | 98.7 | 363 ± 29 | 1570 ± 131 | 28 ± 2 | 166 ± 11 | > 100000 | 177 ± 16 | > 100000 | EC50 [1, 9]: 200 ± 27 nM; CC50 at 2 day (in vitro [3]; CC50 (Table 3), Calu‐3 cells): > 100000 nM
Cc1cncc(C(=O)N2C[C@H]3CC[C@@H](C2)N3C(c2cccc(F)c2)c2cn(CCN3C(=O)c4ccccc4C3=O)nn2)c1 (stereo partly shown) [Compound C5N21] | 100 | 99.5 | 1380 ± 119 | 16200 ± 410 | 259 ± 43 | < 1000 | > 100000 | 150 ± 4 | > 100000 | EC50 [1, 8]: 591 ± 11 nM
COC(=O)CCCn1cc(C(c2cccc(F)c2)N2[C@@H]3CC[C@H]2CN(C(=O)c2cncc(C)c2)C3)nn1 (stereo partly shown) [Compound C5N39] | 96 | 87.6 | 1600 ± 249 | 1870 ± 270 | 253 ± 26 | < 1000 | > 100000 | 253 ± 10 | > 100000 | EC50 [1, 8]: 899 ± 312 nM
Cc1cncc(C(=O)N2C[C@H]3CC[C@@H](C2)N3C(c2cccc(F)c2)c2cn(C[S+]([O-])c3ccccc3)nn2)c1 (stereo partly shown) [Compound C5N41] | 100 | 92.3 | 2270 ± 89 | 3670 ± 513 | 97 ± 5 | 1780 ± 1 | > 100000 | 243 ± 11 | > 100000 | –
Cc1cncc(C(=O)N2C[C@H]3CC[C@@H](C2)N3C(c2cccc(F)c2)c2cn(CS(=O)(=O)c3ccccc3)nn2)c1 (stereo partly shown) [Compound C5N42] | 101 | 96.2 | 3050 ± 206 | 3680 ± 952 | 133 ± 19 | 1770 ± 55 | > 100000 | 196 ± 9 | > 100000 | –
Cc1cncc(C(=O)N2C[C@H]3CC[C@@H](C2)N3C(c2cccc(F)c2)c2cn(Cc3ccc(S(C)(=O)=O)cc3)nn2)c1 (stereo partly shown) [Compound C5N50] | 90 | 69 | 6570 ± 430 | 36100 ± 1380 | 2900 ± 263 | 17000 ± 778 | > 100000 | 2400 ± 100 | > 100000 | –
CNC(=O)Cn1cc(C(c2cccc(F)c2)N2[C@@H]3CC[C@H]2CN(C(=O)c2cncc(C)c2)C3)nn1 (stereo partly shown) [Compound C5N57] | 96 | 85.1 | > 10000 | > 100000 | 2330 ± 66 | 4040 ± 986 | > 100000 | 580 ± 5 | > 100000 | –
Cc1cncc(C(=O)N2C[C@H]3CC[C@@H](C2)N3C(c2cccc(F)c2)c2cn(CC(N)=O)nn2)c1 (stereo partly shown) [Compound C5N58] | 99 | 100 | 1390 ± 171 | > 100000 | 337 | 4940 ± 687 | > 100000 | 151 ± 6 | > 100000 | EC50 ([1]; Calu‐3 cells, with CP‐100356, read-out: EC50 ± SD, Calu‐3 cells, with P‐gp inhibitor): 338 ± 56 nM
Cc1cncc(C(=O)N2C[C@H]3CC[C@@H](C2)N3C(c2cccc(F)c2)c2cn(Cc3cccc(F)c3)nn2)c1 (stereo partly shown) [Compound C5N64] | 93 | 79.9 | 2860 ± 131 | 4200 ± 738 | 479 ± 26 | 2940 ± 124 | > 100000 | 1230 ± 100 | > 100000 | –
O=C(c1cccnc1)N1C[C@H]2CC[C@@H](C1)N2C(c1cccc(F)c1)c1cn(CCc2ccsc2)nn1 (stereo partly shown) [Compound C6N17] | 90 | 91.7 | – | – | – | – | – | 300 ± 12 | – | –
O=C(c1cccnc1)N1C[C@H]2CC[C@@H](C1)N2C(c1cccc(F)c1)c1cn(CCN2C(=O)c3ccccc3C2=O)nn1 (stereo partly shown) [Compound C6N21] | 89 | 95.1 | – | – | – | – | – | 200 ± 16 | – | –
Cn1cnc(Cn2c(=O)[nH]/c(=N\c3cc4cn(C)nc4cc3Cl)n(Cc3cc(F)c(F)cc3F)c2=O)n1 [Ensitrelvir, reference compound] | – | – | – | – | – | – | > 100000 | – | > 100000 | EC50 (SARS‐CoV‐2; Severe acute respiratory syndrome coronavirus 2, Vero, read-out: EC50 ± SD, Vero cells, with P‐gp inhibitor): < 46 nM; EC50 (SARS‐CoV‐2; Severe acute respiratory syndrome coronavirus 2, Vero, read-out: EC50 ± SD, Vero cells, without P‐gp inhibitor): 165 ± 15 nM; EC50 ([1]; Severe acute respiratory syndrome coronavirus 2, Calu-3, read-out: EC50 ± SD, Calu‐3 cells, with P‐gp inhibitor): < 46 nM; EC50 ([1]; Severe acute respiratory syndrome coronavirus 2, Calu-3, read-out: EC50 ± SD, Calu‐3 cells, without P‐gp inhibitor): 110 nM; EC50 ([1]; read-out: EC50 ± SD, Calu‐3 cells, without P‐gp inhibitor): 112 ± 11 nM

Source: paper PMC11578313, “Miniaturized Modular Click Chemistry‐enabled Rapid Discovery of Unique SARS‐CoV‐2 M^pro Inhibitors With Robust Potency and Drug‐like Profile” (Advanced Science, 2024)
